In patent US20100144854A1 (priority 2007, published 2010):

Experiments:
[1] = tested on: adenocarcinoma of the large intestine; assay: Example 6: patient with large intestine adenocarcinoma and liver metastases treated with rhodamine 6G; type: in vivo, human; design: Nuclear segments / Lymphocytes (line r11) / Erythrocytes / Hemoglobin / Thrombocytes / Leukocytes / Amylase / Chlorine / Serum iron / Cholesterol / Total bilirubin / Bilirubin (line r8, above 'direct'): unit not given here; conditions: for Erythrocytes / Hemoglobin / Leukocytes / Thrombocytes / Eosinophils / Cholesterol / Monocytes / Total bilirubin / Potassium / ALT / AST / Bilirubin (line r8, above 'direct') / Serum iron / Lymphocytes (line r11) / Nuclear segments / Total protein / Creatinine / Amylase / Chlorine / Indirect bilirubin fraction / direct (line r9) / indirect (line r11) / Basophils / Nuclear rods: Example 6, Patient N; for Eosinophils: normal 0-5; for Cholesterol: normal 1.66-8.3; for Monocytes: normal 2-9%; for Total bilirubin: normal 2.90-6.54; for Potassium: normal 3.5-6.0; for ALT / AST: normal 5-40; for Bilirubin (line r8, above 'direct'): normal 8.5-20.5; for Serum iron: normal 8.8-27.0; for Lymphocytes (line r11): normal 18-; for Nuclear segments: normal 45-70; for Total protein: normal 65.0-80; for Creatinine: normal 85.0; for Amylase: normal 95-110.0; for Chlorine: normal 135.0-; for Indirect bilirubin fraction / direct (line r9): normal to 25%; for indirect (line r11): normal to 100; for Basophils: normal 0-1%; for Nuclear rods: normal 1-6%
Protocol: Patient N. Diagnosis: adenocarcinoma of the large intestine. Metastases in the liver. Ascites. Three years previously a resection of the large intestine was performed with insertion of an anastomosis end to end. A full course of polychemo-therapy was given. Two years after the treatment the patient complained of pain in the bottom of the abdomen and tenesmus. The patient presented complaining of acute weakness, constant pain in the abdomen, coughing, dyspnea, ascites, retention of stools. Patient's condition serious, loss of appetite, pale cyanosed skin, abdomen with signs of ascites. […] A lump of irregular shape 2×4 cm in size with irregular edges was detected by computerized tomography in the right renal lobe. A large lump 4×5.4 cm in size and free liquid in the peritoneal cavity were also detected. […] The infusions were administered weekly over the course of 3 months. […] The enemas were administered three times a week over the course of 2 months. […] In the third week of treatment the dyspnea was less severe. In the course of treatment the tumor in the region of the anastomosis decreased in size to 0.2×0.3 cm. After 3 months the treatment was discontinued for 1 month, and was then resumed for a further 2 months.

[2] = Tolerability on use in a wide range of dosages; type: in vivo; conditions: used in a wide range of dosages
[3] = Patient N, over the course of the treatment (3 months, 1 month pause, 2 months)

Substance: 9-(2-ethoxycarbonyl)phenyl)-3,6-bis(ethylamino)2,7-dimethylxanthyl chloride [rhodamine 6G]
- Erythrocytes ([1]; 09 Dec. 2004): 4.44
- Hemoglobin ([1]; 09 Dec. 2004): 115
- Leukocytes ([1]; 09 Dec. 2004): 5.2
- Thrombocytes ([1]; 09 Dec. 2004): 326
- Eosinophils ([1]; 09 Dec. 2004): 2
- Cholesterol ([1]; 09 Dec. 2004): 5.75
- Monocytes ([1]; 09 Dec. 2004): 10%
- Total bilirubin ([1]; 09 Dec. 2004): 8.4
- Potassium ([1]; 09 Dec. 2004): 2.28
- ALT ([1]; 09 Dec. 2004): 69.2 el
- AST ([1]; 09 Dec. 2004): 45.7 el
- Bilirubin (line r8, above 'direct') ([1]; 09 Dec. 2004): 3.3
- Serum iron ([1]; 09 Dec. 2004): 54.8
- Lymphocytes (line r11) ([1]; 09 Dec. 2004): 58
- Nuclear segments ([1]; 09 Dec. 2004): 6
- Total protein ([1]; 09 Dec. 2004): 65 g/L
- Creatinine ([1]; 09 Dec. 2004): 74 µM
- Amylase ([1]; 09 Dec. 2004): 102.8
- Chlorine ([1]; 09 Dec. 2004): 114.31
- Indirect bilirubin fraction ([1]; 09 Dec. 2004): 84%
- direct (line r9) ([1]; 09 Dec. 2004): 5.1%
- indirect (line r11) ([1]; 09 Dec. 2004): 89 el
- Erythrocytes ([1]; 09 Jan. 2005): 4.87
- Hemoglobin ([1]; 09 Jan. 2005): 128
- Leukocytes ([1]; 09 Jan. 2005): 5.3
- Thrombocytes ([1]; 09 Jan. 2005): 440
- Basophils ([1]; 09 Jan. 2005): 1%
- Eosinophils ([1]; 09 Jan. 2005): 1
- Nuclear rods ([1]; 09 Jan. 2005): 2%
- Cholesterol ([1]; 09 Jan. 2005): 7.03
- Monocytes ([1]; 09 Jan. 2005): 12%
- Total bilirubin ([1]; 09 Jan. 2005): 8.0
- Potassium ([1]; 09 Jan. 2005): 2.15
- ALT ([1]; 09 Jan. 2005): 79 el
- AST ([1]; 09 Jan. 2005): 29.5 el
- Bilirubin (line r8, above 'direct') ([1]; 09 Jan. 2005): 2.0
- Serum iron ([1]; 09 Jan. 2005): 42.9
- Lymphocytes (line r11) ([1]; 09 Jan. 2005): 69
- Nuclear segments ([1]; 09 Jan. 2005): 5
- Total protein ([1]; 09 Jan. 2005): 82.53 g/L
- Creatinine ([1]; 09 Jan. 2005): 69 µM
- Amylase ([1]; 09 Jan. 2005): 110.0
- Chlorine ([1]; 09 Jan. 2005): 134.2
- Indirect bilirubin fraction ([1]; 09 Jan. 2005): 90%
- direct (line r9) ([1]; 09 Jan. 2005): 6.0%
- indirect (line r11) ([1]; 09 Jan. 2005): 78.0 el
- Erythrocytes ([1]; 9 Oct. 2004): 3.20
- Hemoglobin ([1]; 9 Oct. 2004): 74
- Leukocytes ([1]; 9 Oct. 2004): 9.2
- Thrombocytes ([1]; 9 Oct. 2004): 120
- Basophils ([1]; 9 Oct. 2004): 1%
- Eosinophils ([1]; 9 Oct. 2004): 1
- Nuclear rods ([1]; 9 Oct. 2004): 0%
- Cholesterol ([1]; 09 Oct. 2004): 6.21
- Monocytes ([1]; 9 Oct. 2004): 36%
- Total bilirubin ([1]; 09 Oct. 2004): 11.0
- Potassium ([1]; 09 Oct. 2004): 2.72
- ALT ([1]; 09 Oct. 2004): 465.8 el
- AST ([1]; 09 Oct. 2004): 265.7 el
- Bilirubin (line r8, above 'direct') ([1]; 09 Oct. 2004): 3.0
- Serum iron ([1]; 09 Oct. 2004): 190.4
- Lymphocytes (line r11) ([1]; 9 Oct. 2004): 35
- Nuclear segments ([1]; 9 Oct. 2004): 2
- Total protein ([1]; 09 Oct. 2004): 51.23 g/L
- Creatinine ([1]; 09 Oct. 2004): 118 µM
- Amylase ([1]; 09 Oct. 2004): 114.0
- Chlorine ([1]; 09 Oct. 2004): 114.20
- Indirect bilirubin fraction ([1]; 09 Oct. 2004): 82%
- direct (line r9) ([1]; 09 Oct. 2004): 8.0%
- indirect (line r11) ([1]; 09 Oct. 2004): 107.2 el
- Cholesterol ([1]; 24. Nov. 2004): 5.62
- Total bilirubin ([1]; 24. Nov. 2004): 24.2
- Potassium ([1]; 24. Nov. 2004): 2.32
- ALT ([1]; 24. Nov. 2004): 326 el
- AST ([1]; 24. Nov. 2004): 125.8 el
- Bilirubin (line r8, above 'direct') ([1]; 24. Nov. 2004): 22.3
- Serum iron ([1]; 24. Nov. 2004): 104.7
- Total protein ([1]; 24. Nov. 2004): 62.26 g/L
- Creatinine ([1]; 24. Nov. 2004): 89 µM
- Amylase ([1]; 24. Nov. 2004): 140
- Chlorine ([1]; 24. Nov. 2004): 115.3
- Indirect bilirubin fraction ([1]; 24. Nov. 2004): 96%
- direct (line r9) ([1]; 24. Nov. 2004): 11.9%
- indirect (line r11) ([1]; 24. Nov. 2004): 102 el
- Erythrocytes ([1]; 24 Nov. 2004): 3.84
- Hemoglobin ([1]; 24 Nov. 2004): 90
- Leukocytes ([1]; 24 Nov. 2004): 12.0
- Thrombocytes ([1]; 24 Nov. 2004): 210
- Eosinophils ([1]; 24 Nov. 2004): 2
- Nuclear rods ([1]; 24 Nov. 2004): 1%
- Monocytes ([1]; 24 Nov. 2004): 12%
- Lymphocytes (line r11) ([1]; 24 Nov. 2004): 49
- Nuclear segments ([1]; 24 Nov. 2004): 6
- feeling of pain ([1]; Patient N, 55, ten days after start, i.v. infusions, enemas, oral solution): completely disappeared
- body weight ([1]; Patient N, after treatment): Weight regained
- blood indices ([1]; Patient N, during treatment): marked step-wise improvement
- symptoms complained of ([1]; Patient N, in 2 years): no symptoms
- metastases in the liver [1, 3]: no metastases were detected
- tumor in the region of the anastomosis [1, 3]: no tumor was detected
- dyspnea ([1]; Patient N, third week of treatment): less severe
- allergic reactions or other side effects [2]: does not produce any allergic reactions or other side effects
